Paper PMC11999338, “Factor XI localization in human deep venous thrombus and function of activated factor XI on venous thrombus formation and hemostasis” (Research and Practice in Thrombosis and Haemostasis, 2025)
Entries after “also recorded” stand apart in the source; their conditions may differ.

Columns and labels:
[1] = tested on: human thrombus formation in vitro; test: In vitro human blood perfusion in flow chamber on collagen and tissue factor (70/s); assay type: cell-based; details: rivaroxaban 1 μmol/L, low-shear 70/s
Procedure: The Ethics Committee of the University of Miyazaki approved this study (approval number O-1160). The Collagen Reagent HORM (Takeda Pharmaceutical, 20 μg/mL) and recombinant tissue factor (Dade Innovin, ×1000, Siemens) were immobilized on glass coverslips (24 × 50 mm) in parallel-plate flow chambers, as described above. Blood from healthy human volunteers who were not on medication was collected using 21-gauge needles into plastic syringes containing a corn trypsin inhibitor (Molecular Innovations, final concentration 10 μg/mL). Anticoagulated whole blood was used for the perfusion. The solvent (n = 10), FXIa inhibitor (ONO-1600586, 3 μmol/L, n = 10) or FXa inhibitor (rivaroxaban, 1 μmol/L, n = 10), and mepacrine (Sigma-Aldrich, final concentration 5 μM) were added to the blood before perfusion. Blood samples were perfused through the chamber using a syringe pump (KDS100, KD Scientific Inc) at a constant flow rate (15 mL/h) to achieve wall shear rates of 70/s. Finally, the surface covering area, fibrin-immunopositive area, and the number of neutrophils were analyzed as described above.
The pre-and postperfused blood samples were collected into a tube containing 3.8% sodium citrate anticoagulant (9:1 v/v). Plasma samples were centrifuged at 1500 × g for 15 minutes at room temperature. FXIa and FXa activities were measured using an automatic blood coagulation analyzer (ACL-TOP, Werfen), as well as FXI-deficient plasma (HemosIL Factor XI Deficient Plasma and HemosIL SynthASil APTT, Werfen) and FX-deficient plasma (HemosIL Factor X Deficient Plasma and HemosIL RecombiPlasTin, Werfen). The plasma levels of prothrombin fragment 1 + 2 were measured using an enzyme-linked immunosorbent assay (Enzygnost F1 + 2 Monoclonal, Siemens).

jugular vein thrombus = test: Rabbit model of jugular vein thrombosis by endothelial denudation and luminal stenosis; assay type: in vivo; details: rabbits; for venous thrombus weight compared with control: 90 minutes before thrombus formation, thrombus weighed after 3 hours
Procedure: The protocols of the venous thrombosis and skin bleeding models in rabbits were as follows (Supplementary Figure 2). First, fasting rabbits were orally administered a solvent as a control (n = 10), a FXIa inhibitor (ONO-1600586, 5 mg/kg, n = 10; 15 mg/kg, n = 10; and 50 mg/kg, n = 11), or a FXa inhibitor ([…], n = 10 each) using a Nelaton catheter of 5 mm diameter (IZUMO Health Co, Ltd) 90 minutes before thrombus formation. […] Additional anesthesia with one-third amount of the above-mentioned mixture of drugs was administered 80 minutes after the first injection, and all surgical operations proceeded under aseptic conditions. Briefly, 90 minutes postadministration of the solvent, ONO-1600586, or rivaroxaban, venous thrombi were induced in rabbit jugular veins through endothelial denudation using a 3F balloon catheter (Edwards Lifesciences), according to a previous study, and the method was modified to induce luminal stenosis. A 2 mm polyethylene tube was placed outside the vessel. Both the jugular vein and polyethylene tube were ligated, and the tube was removed (Supplementary Figure 3). Next, 3 hours after thrombus formation and stenosis, the rabbits were infused with heparin (500 U/kg, i.v.) and then euthanized with an overdose of pentobarbital (60 mg/kg, i.v.). Subsequently, the animals were perfused with 50 mL phosphate-buffered saline (0.01 mol/L), and the jugular veins were sampled. The venous thrombi were immediately removed from the venous wall and weighed. […] Paraffin-embedded sections (4 μm thick) of the rabbit jugular vein thrombus were stained with HE and morphologically assessed. Consecutive sections of thrombi were immunohistochemically stained with antibodies against fibrin (Millipore) and GPIIb/IIIa (Affinity Biologicals Inc). Images were digitized using a photosensitive color CCD camera (BX51, OLYMPUS). Finally, the area of the red-stained erythrocytes in HE staining and the immunopositive areas for fibrin and GPIIb/IIIa were semiquantified using a color imaging morphometry system (WinROOF, Mitani).

PT and aPTT = PT and aPTT after oral administration in rabbit stasis model; assay type: in vivo; details: rabbits, stasis model, 1, 3, and 7 hours; ONO-1600586 50 mg/mL, rivaroxaban 15 mg/mL (so in the source)
Procedure: The protocols of venous thrombosis by stasis were as follows (Supplementary Figure 4). First, fasting rabbits were orally administered a solvent as a control (n = 8), a FXIa inhibitor (ONO-1600586, 50 mg/kg, n = 8), or a FXa inhibitor (rivaroxaban, 15 mg/kg, n = 8) using a Nelaton catheter of 5 mm diameter (IZUMO Health Co, Ltd) 60 minutes before thrombus formation. The process of thrombus formation was performed under general anesthesia through the subcutaneous injection of a mixture of medetomidine hydrochloride (0.08 mg/kg body weight), butorphanol tartrate (0.2 mg/kg), and midazolam (0.4 mg/kg).
Blood samples were collected from the central ear arteries of the rabbits before and 1, 3, and 7 hours after administering the solvent, ONO-1600586, and rivaroxaban in 3.8% sodium citrate (9:1 v/v) using 21-gauge needles. Plasma samples were centrifuged at 1500 × g for 15 minutes at room temperature. PT and aPTT were measured using a coagulation timer (KC-1 Delta, Tcoag Ireland Ltd) and reagents (aPTT: ACTIN, Siemens; PT: THROMBOCHECK PT+, Sysmex). Data are expressed as a ratio of PT and aPTT to those before administration.

SMILES: O=C(NC[C@H]1CN(c2ccc(N3CCOCC3=O)cc2)C(=O)O1)c1ccc(Cl)s1 [rivaroxaban]
- fibrin formation in the flow chamber ([1]; ONO-1600586 3 μM): markedly decreased
- leukocyte adhesion ([1]; ONO-1600586 3 μmol/L): did not affect
- plasma levels of prothrombin fragment 1 + 2 after perfusion ([1]; ONO-1600586 3 μmol/L): reduced
- platelet covering area ([1]; ONO-1600586 3 μmol/L): did not affect
- FXa activity in the plasma after perfusion [1]: reduced
- venous thrombus weight compared with control (jugular vein thrombus; 1 mg/kg oral (so in the source)): tended to reduce
- venous thrombus weight compared with control (jugular vein thrombus; 5 mg/kg oral): tended to reduce
- venous thrombus weight compared with control (jugular vein thrombus; 15 mg/kg oral, 15 mg/kg): significantly reduced; also recorded: similarly reduced
- immunopositive area of fibrin in venous thrombus (jugular vein thrombus; compared with control and ONO-1600586 groups): tended to be smaller
- areas of erythrocytes or immunopositive areas of fibrin or GPIIb/IIIa in venous thrombus (jugular vein thrombus; histology of jugular vein thrombus, comparison among groups): did not differ
- PT after oral administration (PT and aPTT): prolonged
- aPTT after oral administration (PT and aPTT): prolonged
